This note sets out measurements from the kinase profiling compilation of Christmann-Franck et al. (2016).

Sequence of SRPK3 (human) (Q9UPE1 whole entry, looked up): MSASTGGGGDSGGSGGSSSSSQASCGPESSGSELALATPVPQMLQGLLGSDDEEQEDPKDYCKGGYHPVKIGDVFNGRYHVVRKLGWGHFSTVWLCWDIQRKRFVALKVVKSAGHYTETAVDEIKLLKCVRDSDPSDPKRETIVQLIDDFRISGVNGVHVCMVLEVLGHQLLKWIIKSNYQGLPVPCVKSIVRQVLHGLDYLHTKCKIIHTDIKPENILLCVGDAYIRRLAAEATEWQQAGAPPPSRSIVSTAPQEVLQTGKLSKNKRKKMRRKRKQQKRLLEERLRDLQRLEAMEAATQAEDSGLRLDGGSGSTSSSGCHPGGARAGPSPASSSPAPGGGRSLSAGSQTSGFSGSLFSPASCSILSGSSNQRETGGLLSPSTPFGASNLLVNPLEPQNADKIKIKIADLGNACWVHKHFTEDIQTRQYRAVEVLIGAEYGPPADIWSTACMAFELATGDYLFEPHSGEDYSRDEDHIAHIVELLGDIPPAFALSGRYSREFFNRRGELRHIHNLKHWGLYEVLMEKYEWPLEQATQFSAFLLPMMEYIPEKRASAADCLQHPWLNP
Sequence of CDK2 CCNE1 (human) (P24864 whole entry, looked up, other chains not shown): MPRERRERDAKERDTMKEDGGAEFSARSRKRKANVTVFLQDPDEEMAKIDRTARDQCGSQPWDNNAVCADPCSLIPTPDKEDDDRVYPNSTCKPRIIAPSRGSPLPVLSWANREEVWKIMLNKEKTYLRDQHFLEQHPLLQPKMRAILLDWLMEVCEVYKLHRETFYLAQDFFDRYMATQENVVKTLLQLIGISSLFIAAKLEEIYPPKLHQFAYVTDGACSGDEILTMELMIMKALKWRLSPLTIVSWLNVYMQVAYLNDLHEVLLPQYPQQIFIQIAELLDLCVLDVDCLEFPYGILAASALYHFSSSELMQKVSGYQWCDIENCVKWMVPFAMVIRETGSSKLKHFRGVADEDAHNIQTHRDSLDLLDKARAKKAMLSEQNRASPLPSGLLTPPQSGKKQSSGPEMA
Sequence of VRK1 (human) (Q99986 whole entry, looked up): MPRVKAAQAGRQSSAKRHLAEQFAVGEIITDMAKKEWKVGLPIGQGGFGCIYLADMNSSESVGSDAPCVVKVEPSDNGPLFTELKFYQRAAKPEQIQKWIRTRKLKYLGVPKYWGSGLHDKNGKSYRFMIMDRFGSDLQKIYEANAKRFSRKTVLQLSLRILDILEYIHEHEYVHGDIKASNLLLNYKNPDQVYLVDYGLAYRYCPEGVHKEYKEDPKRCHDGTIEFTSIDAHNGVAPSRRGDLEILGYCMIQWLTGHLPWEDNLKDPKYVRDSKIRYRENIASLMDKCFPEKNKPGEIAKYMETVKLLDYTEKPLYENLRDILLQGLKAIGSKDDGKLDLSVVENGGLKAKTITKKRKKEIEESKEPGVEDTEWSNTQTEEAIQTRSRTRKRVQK

One assay deals with DAPK2 (human) (UniProt Q9UIK4). The assay can be described thus: radiometric filter-binding kinase assay, Kinase HotSpot. Conditions: compound 0.5 µM; ATP 10 µM.
Turning to `Cc1ccc(Nc2nccc(N(C)c3ccc4c(C)n(C)nc4c3)n2)cc1S(N)(=O)=O`, the residual activity is 93%.

On to `O=C1Nc2ccc(Cl)cc2/C1=C/c1cc(Cl)c(O)c(Cl)c1`, for which the residual activity was determined as 135%.

Take `O=C1NC(=O)/C(=C/c2ccc3c(c2)OC(F)(F)O3)S1`: the residual activity turned out to be 105%.

The target of the next assay is CAMK2D (human) (UniProt Q13557). Described as above. The conditions noted are these: compound 0.5 µM; ATP 10 µM.
As for `Cc1ccc(Nc2nccc(N(C)c3ccc4c(C)n(C)nc4c3)n2)cc1S(N)(=O)=O`, the residual activity was 99.4%.

Take `O=C1Nc2ccc(Cl)cc2/C1=C/c1cc(Cl)c(O)c(Cl)c1`: the residual activity stood at 80.2%.

For the compound `O=C1NC(=O)/C(=C/c2ccc3c(c2)OC(F)(F)O3)S1`, the residual activity was found to be 97.1%.

For a further assay, the target named is IKBKE (human) (UniProt Q14164). The description is as above. Conditions: compound 0.5 µM; ATP 10 µM.
For the compound `Cc1ccc(Nc2nccc(N(C)c3ccc4c(C)n(C)nc4c3)n2)cc1S(N)(=O)=O`, the residual activity is 87%.

For the compound `O=C1Nc2ccc(Cl)cc2/C1=C/c1cc(Cl)c(O)c(Cl)c1`, the residual activity came to 94.7%.

As to `O=C1NC(=O)/C(=C/c2ccc3c(c2)OC(F)(F)O3)S1`, the residual activity turned out to be 101%.

In another assay the target is DAPK3 (human) (UniProt O43293). The assay is described as above. The conditions noted are these: compound 0.5 µM; ATP 10 µM.
`Cc1ccc(Nc2nccc(N(C)c3ccc4c(C)n(C)nc4c3)n2)cc1S(N)(=O)=O`: the residual activity worked out at 92.3%.

In the case of `O=C1Nc2ccc(Cl)cc2/C1=C/c1cc(Cl)c(O)c(Cl)c1`, the residual activity is 82.3%.

On to `O=C1NC(=O)/C(=C/c2ccc3c(c2)OC(F)(F)O3)S1`, for which the residual activity was 104%.

The target of a further assay is RET (human) (UniProt P07949). Described as above. The conditions noted are these: compound 0.5 µM; ATP 10 µM.
Sequence of RET (human) (P07949 whole entry, looked up): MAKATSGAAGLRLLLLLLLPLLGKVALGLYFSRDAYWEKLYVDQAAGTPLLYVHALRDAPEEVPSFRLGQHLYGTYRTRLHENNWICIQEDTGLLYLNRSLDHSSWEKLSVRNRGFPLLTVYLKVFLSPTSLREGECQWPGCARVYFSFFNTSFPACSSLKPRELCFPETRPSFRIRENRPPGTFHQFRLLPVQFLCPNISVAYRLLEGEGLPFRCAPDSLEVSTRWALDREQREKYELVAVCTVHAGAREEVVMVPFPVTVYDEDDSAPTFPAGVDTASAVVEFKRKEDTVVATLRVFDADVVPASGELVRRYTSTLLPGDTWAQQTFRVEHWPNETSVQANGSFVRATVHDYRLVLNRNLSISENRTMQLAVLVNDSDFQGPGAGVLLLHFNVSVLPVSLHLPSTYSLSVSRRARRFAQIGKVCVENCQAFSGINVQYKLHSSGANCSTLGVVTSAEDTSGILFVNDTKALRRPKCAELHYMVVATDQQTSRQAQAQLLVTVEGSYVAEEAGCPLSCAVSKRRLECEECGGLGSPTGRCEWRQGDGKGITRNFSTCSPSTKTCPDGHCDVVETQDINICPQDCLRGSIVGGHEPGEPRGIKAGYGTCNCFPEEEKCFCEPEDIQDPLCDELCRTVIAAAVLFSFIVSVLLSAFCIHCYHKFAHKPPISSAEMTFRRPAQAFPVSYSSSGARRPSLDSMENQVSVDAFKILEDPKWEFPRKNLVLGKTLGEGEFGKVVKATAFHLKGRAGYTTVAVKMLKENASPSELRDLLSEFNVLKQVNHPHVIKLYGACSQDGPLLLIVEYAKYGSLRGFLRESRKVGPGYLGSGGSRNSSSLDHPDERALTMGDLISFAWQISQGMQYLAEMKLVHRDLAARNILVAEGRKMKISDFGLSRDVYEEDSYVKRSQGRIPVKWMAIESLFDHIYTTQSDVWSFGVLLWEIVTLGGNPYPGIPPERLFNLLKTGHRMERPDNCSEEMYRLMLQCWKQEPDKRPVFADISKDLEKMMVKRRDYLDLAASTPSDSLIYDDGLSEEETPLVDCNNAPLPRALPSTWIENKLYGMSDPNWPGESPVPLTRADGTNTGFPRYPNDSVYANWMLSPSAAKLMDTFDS
With `Cc1ccc(Nc2nccc(N(C)c3ccc4c(C)n(C)nc4c3)n2)cc1S(N)(=O)=O`, the residual activity is 25.7%.

With `O=C1Nc2ccc(Cl)cc2/C1=C/c1cc(Cl)c(O)c(Cl)c1`, the residual activity is 80.4%.

For the compound `O=C1NC(=O)/C(=C/c2ccc3c(c2)OC(F)(F)O3)S1`, the residual activity was 102%.

The target of the next assay is CAMK2G (human) (UniProt Q13555). The description is as above. The conditions noted are these: compound 0.5 µM; ATP 10 µM.
Sequence of CAMK2G (human) (Q13555 whole entry, looked up): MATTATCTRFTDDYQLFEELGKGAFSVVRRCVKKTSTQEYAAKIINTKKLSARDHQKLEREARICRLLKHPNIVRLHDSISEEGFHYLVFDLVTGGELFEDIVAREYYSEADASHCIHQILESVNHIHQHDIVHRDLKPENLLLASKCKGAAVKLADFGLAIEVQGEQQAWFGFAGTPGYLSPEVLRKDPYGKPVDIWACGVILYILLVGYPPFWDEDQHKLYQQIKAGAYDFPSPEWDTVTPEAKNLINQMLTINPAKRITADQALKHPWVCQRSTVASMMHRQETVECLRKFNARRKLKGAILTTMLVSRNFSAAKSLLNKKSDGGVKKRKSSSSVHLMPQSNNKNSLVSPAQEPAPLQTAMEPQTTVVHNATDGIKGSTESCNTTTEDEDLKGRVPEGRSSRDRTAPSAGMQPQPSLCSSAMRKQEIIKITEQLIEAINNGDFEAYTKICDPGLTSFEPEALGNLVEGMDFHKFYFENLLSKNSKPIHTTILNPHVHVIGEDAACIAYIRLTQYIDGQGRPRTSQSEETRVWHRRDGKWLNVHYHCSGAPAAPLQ
For `Cc1ccc(Nc2nccc(N(C)c3ccc4c(C)n(C)nc4c3)n2)cc1S(N)(=O)=O`, the residual activity worked out at 106%.

`O=C1Nc2ccc(Cl)cc2/C1=C/c1cc(Cl)c(O)c(Cl)c1`: the residual activity is 119%.

With `O=C1NC(=O)/C(=C/c2ccc3c(c2)OC(F)(F)O3)S1`, the residual activity is 102%.

The next assay has as its target CAMK2B (human) (UniProt Q13554). The description is as above. The conditions noted are these: compound 0.5 µM; ATP 10 µM.
In the case of `Cc1ccc(Nc2nccc(N(C)c3ccc4c(C)n(C)nc4c3)n2)cc1S(N)(=O)=O`, the residual activity was 95.5%.

Turning to `O=C1Nc2ccc(Cl)cc2/C1=C/c1cc(Cl)c(O)c(Cl)c1`, the residual activity came to 92%.

On to `O=C1NC(=O)/C(=C/c2ccc3c(c2)OC(F)(F)O3)S1`, for which the residual activity worked out at 99.8%.

A further assay concerns the target SRPK3 (human) (UniProt Q9UPE1). Described as above. The conditions noted are these: compound 0.5 µM; ATP 10 µM.
For `Cc1ccc(Nc2nccc(N(C)c3ccc4c(C)n(C)nc4c3)n2)cc1S(N)(=O)=O`, the residual activity turned out to be 102%.

Turning to `O=C1Nc2ccc(Cl)cc2/C1=C/c1cc(Cl)c(O)c(Cl)c1`, the residual activity amounted to 88.3%.

Turning to `O=C1NC(=O)/C(=C/c2ccc3c(c2)OC(F)(F)O3)S1`, the residual activity was 95.4%.

The target of a further assay is TEC (human) (UniProt P42680). The assay is described as above. Conditions: compound 0.5 µM; ATP 10 µM.
With `Cc1ccc(Nc2nccc(N(C)c3ccc4c(C)n(C)nc4c3)n2)cc1S(N)(=O)=O`, the residual activity was determined as 101%.

For the compound `O=C1Nc2ccc(Cl)cc2/C1=C/c1cc(Cl)c(O)c(Cl)c1`, the residual activity turned out to be 109%.

For `O=C1NC(=O)/C(=C/c2ccc3c(c2)OC(F)(F)O3)S1`, the residual activity was found to be 108%.

The target of another assay is CAMK2A (human) (UniProt Q9UQM7). Described as above. The conditions noted are these: compound 0.5 µM; ATP 10 µM.
Sequence of CAMK2A (human) (Q9UQM7 whole entry, looked up): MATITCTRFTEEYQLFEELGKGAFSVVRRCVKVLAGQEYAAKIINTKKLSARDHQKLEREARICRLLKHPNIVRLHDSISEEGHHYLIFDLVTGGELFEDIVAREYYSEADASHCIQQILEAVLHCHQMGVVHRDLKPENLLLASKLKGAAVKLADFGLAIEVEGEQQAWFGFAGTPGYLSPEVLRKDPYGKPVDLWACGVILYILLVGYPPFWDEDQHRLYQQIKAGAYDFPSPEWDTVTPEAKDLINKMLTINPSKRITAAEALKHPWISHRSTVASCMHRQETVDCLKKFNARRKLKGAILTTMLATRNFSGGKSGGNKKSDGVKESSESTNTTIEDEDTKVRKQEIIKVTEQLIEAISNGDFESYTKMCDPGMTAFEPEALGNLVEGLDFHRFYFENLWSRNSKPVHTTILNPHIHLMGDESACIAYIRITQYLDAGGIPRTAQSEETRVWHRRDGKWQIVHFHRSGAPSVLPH
As for `Cc1ccc(Nc2nccc(N(C)c3ccc4c(C)n(C)nc4c3)n2)cc1S(N)(=O)=O`, the residual activity came out at 95.6%.

Regarding `O=C1Nc2ccc(Cl)cc2/C1=C/c1cc(Cl)c(O)c(Cl)c1`, the residual activity came out at 92.9%.

For the compound `O=C1NC(=O)/C(=C/c2ccc3c(c2)OC(F)(F)O3)S1`, the residual activity was determined as 96.8%.

The target in another assay is CLK1 (human) (UniProt P49759). The assay is described as above. The conditions noted are these: compound 0.5 µM; ATP 10 µM.
Consider `Cc1ccc(Nc2nccc(N(C)c3ccc4c(C)n(C)nc4c3)n2)cc1S(N)(=O)=O`, for which the residual activity was determined as 103%.

In the case of `O=C1Nc2ccc(Cl)cc2/C1=C/c1cc(Cl)c(O)c(Cl)c1`, the residual activity was determined as 85%.

Take `O=C1NC(=O)/C(=C/c2ccc3c(c2)OC(F)(F)O3)S1`: the residual activity stood at 102%.

For another assay, the target named is TBK1 (human) (UniProt Q9UHD2). The assay is described as above. The conditions noted are these: compound 0.5 µM; ATP 10 µM.
For `Cc1ccc(Nc2nccc(N(C)c3ccc4c(C)n(C)nc4c3)n2)cc1S(N)(=O)=O`, the residual activity turned out to be 99.5%.

On to `O=C1Nc2ccc(Cl)cc2/C1=C/c1cc(Cl)c(O)c(Cl)c1`, for which the residual activity was 86.8%.

As to `O=C1NC(=O)/C(=C/c2ccc3c(c2)OC(F)(F)O3)S1`, the residual activity was 93.3%.

The target of another assay is EPHB3 (human) (UniProt P54753). Described as above. The conditions noted are these: compound 0.5 µM; ATP 10 µM.
With `Cc1ccc(Nc2nccc(N(C)c3ccc4c(C)n(C)nc4c3)n2)cc1S(N)(=O)=O`, the residual activity turned out to be 71.7%.

As to `O=C1Nc2ccc(Cl)cc2/C1=C/c1cc(Cl)c(O)c(Cl)c1`, the residual activity was 91%.

With `O=C1NC(=O)/C(=C/c2ccc3c(c2)OC(F)(F)O3)S1`, the residual activity came to 93.1%.

A further assay addresses PRKCA (human) (UniProt P17252). The assay is described as above. Conditions: compound 0.5 µM; ATP 10 µM.
Regarding `Cc1ccc(Nc2nccc(N(C)c3ccc4c(C)n(C)nc4c3)n2)cc1S(N)(=O)=O`, the residual activity stood at 94.4%.

`O=C1Nc2ccc(Cl)cc2/C1=C/c1cc(Cl)c(O)c(Cl)c1`: the residual activity is 105%.

In the case of `O=C1NC(=O)/C(=C/c2ccc3c(c2)OC(F)(F)O3)S1`, the residual activity came to 106%.

Another assay concerns the target SGK3 (human) (UniProt Q96BR1). Described as above. The conditions noted are these: compound 0.5 µM; ATP 10 µM.
`Cc1ccc(Nc2nccc(N(C)c3ccc4c(C)n(C)nc4c3)n2)cc1S(N)(=O)=O`: the residual activity was determined as 97.5%.

For `O=C1Nc2ccc(Cl)cc2/C1=C/c1cc(Cl)c(O)c(Cl)c1`, the residual activity stood at 98.6%.

Regarding `O=C1NC(=O)/C(=C/c2ccc3c(c2)OC(F)(F)O3)S1`, the residual activity came to 94.7%.

A further assay has as its target VRK1 (human) (UniProt Q99986). Described as above. Conditions: compound 0.5 µM; ATP 10 µM.
Consider `Cc1ccc(Nc2nccc(N(C)c3ccc4c(C)n(C)nc4c3)n2)cc1S(N)(=O)=O`, for which the residual activity was determined as 100%.

In the case of `O=C1Nc2ccc(Cl)cc2/C1=C/c1cc(Cl)c(O)c(Cl)c1`, the residual activity is 80.6%.

For the compound `O=C1NC(=O)/C(=C/c2ccc3c(c2)OC(F)(F)O3)S1`, the residual activity was 85.6%.

A further assay addresses SYK (human) (UniProt P43405). Described as above. The conditions noted are these: compound 0.5 µM; ATP 10 µM.
As for `Cc1ccc(Nc2nccc(N(C)c3ccc4c(C)n(C)nc4c3)n2)cc1S(N)(=O)=O`, the residual activity stood at 101%.

For the compound `O=C1Nc2ccc(Cl)cc2/C1=C/c1cc(Cl)c(O)c(Cl)c1`, the residual activity was found to be 93.3%.

For the compound `O=C1NC(=O)/C(=C/c2ccc3c(c2)OC(F)(F)O3)S1`, the residual activity is 95.3%.

In the next assay the target is AKT3 (human) (UniProt Q9Y243). The description is as above. The conditions noted are these: compound 0.5 µM; ATP 10 µM.
As to `Cc1ccc(Nc2nccc(N(C)c3ccc4c(C)n(C)nc4c3)n2)cc1S(N)(=O)=O`, the residual activity is 93.3%.

For `O=C1Nc2ccc(Cl)cc2/C1=C/c1cc(Cl)c(O)c(Cl)c1`, the residual activity was found to be 96.9%.

Regarding `O=C1NC(=O)/C(=C/c2ccc3c(c2)OC(F)(F)O3)S1`, the residual activity came to 103%.

The next assay deals with TSSK2 (human) (UniProt Q96PF2). Described as above. The conditions noted are these: compound 0.5 µM; ATP 10 µM.
Sequence of TSSK2 (human) (Q96PF2 whole entry, looked up): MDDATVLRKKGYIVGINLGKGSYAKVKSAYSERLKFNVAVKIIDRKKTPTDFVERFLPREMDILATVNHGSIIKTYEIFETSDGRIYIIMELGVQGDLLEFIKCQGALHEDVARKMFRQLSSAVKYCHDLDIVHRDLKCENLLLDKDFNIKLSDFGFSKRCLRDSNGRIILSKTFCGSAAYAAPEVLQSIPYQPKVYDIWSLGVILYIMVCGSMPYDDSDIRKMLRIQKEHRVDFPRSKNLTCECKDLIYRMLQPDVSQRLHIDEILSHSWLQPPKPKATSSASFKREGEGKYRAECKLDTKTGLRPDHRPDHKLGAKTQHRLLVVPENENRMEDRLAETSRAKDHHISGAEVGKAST
`Cc1ccc(Nc2nccc(N(C)c3ccc4c(C)n(C)nc4c3)n2)cc1S(N)(=O)=O`: the residual activity amounted to 102%.

With `O=C1Nc2ccc(Cl)cc2/C1=C/c1cc(Cl)c(O)c(Cl)c1`, the residual activity was determined as 94.4%.

Regarding `O=C1NC(=O)/C(=C/c2ccc3c(c2)OC(F)(F)O3)S1`, the residual activity was 101%.

Another assay addresses CDK2 CCNE1 (human) (UniProt P24941+P24864). Described as above. The conditions noted are these: compound 0.5 µM; ATP 10 µM.
Regarding `Cc1ccc(Nc2nccc(N(C)c3ccc4c(C)n(C)nc4c3)n2)cc1S(N)(=O)=O`, the residual activity is 96.4%.

Turning to `O=C1Nc2ccc(Cl)cc2/C1=C/c1cc(Cl)c(O)c(Cl)c1`, the residual activity amounted to 90%.

For the compound `O=C1NC(=O)/C(=C/c2ccc3c(c2)OC(F)(F)O3)S1`, the residual activity is 89.9%.

In a further assay the target is TAOK1 (human) (UniProt Q7L7X3). The assay is described as above. Conditions: compound 0.5 µM; ATP 10 µM.
Sequence of TAOK1 (human) (Q7L7X3 whole entry, looked up): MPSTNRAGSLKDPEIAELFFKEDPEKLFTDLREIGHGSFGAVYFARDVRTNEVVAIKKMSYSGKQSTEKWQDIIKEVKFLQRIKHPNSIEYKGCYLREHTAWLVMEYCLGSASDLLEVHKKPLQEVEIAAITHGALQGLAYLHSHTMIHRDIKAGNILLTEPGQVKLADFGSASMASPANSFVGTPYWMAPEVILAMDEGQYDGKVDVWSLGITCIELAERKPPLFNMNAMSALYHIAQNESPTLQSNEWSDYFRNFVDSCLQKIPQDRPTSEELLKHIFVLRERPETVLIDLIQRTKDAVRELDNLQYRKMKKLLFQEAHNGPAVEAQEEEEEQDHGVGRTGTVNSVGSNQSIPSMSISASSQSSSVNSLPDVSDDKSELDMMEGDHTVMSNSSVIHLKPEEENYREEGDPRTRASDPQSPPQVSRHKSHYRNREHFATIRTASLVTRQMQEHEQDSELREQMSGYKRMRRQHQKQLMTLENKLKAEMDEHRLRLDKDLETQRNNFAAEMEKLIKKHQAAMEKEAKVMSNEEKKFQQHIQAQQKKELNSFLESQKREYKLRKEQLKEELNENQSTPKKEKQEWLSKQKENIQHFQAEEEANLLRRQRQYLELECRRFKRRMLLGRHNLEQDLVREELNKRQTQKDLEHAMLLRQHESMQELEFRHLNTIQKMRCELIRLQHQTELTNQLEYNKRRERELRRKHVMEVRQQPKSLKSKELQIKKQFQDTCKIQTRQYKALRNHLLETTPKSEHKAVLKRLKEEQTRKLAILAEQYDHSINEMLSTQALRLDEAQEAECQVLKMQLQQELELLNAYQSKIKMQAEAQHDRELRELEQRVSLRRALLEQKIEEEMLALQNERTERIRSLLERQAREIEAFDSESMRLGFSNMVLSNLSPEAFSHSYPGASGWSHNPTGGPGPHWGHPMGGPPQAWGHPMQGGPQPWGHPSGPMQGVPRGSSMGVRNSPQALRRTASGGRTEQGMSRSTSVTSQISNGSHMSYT
Consider `Cc1ccc(Nc2nccc(N(C)c3ccc4c(C)n(C)nc4c3)n2)cc1S(N)(=O)=O`, for which the residual activity is 28.9%.

`O=C1Nc2ccc(Cl)cc2/C1=C/c1cc(Cl)c(O)c(Cl)c1`: the residual activity was 71.6%.

In the case of `O=C1NC(=O)/C(=C/c2ccc3c(c2)OC(F)(F)O3)S1`, the residual activity worked out at 90%.
